Data set [1] deals with L 1210. Type of data set: in vivo, CDF1 mouse. The settings on record: days 1, 5 and 9; for T/C %: 125 or more judged effective. As to the method: ip: On the day 0, L 1210 (10^5 cells/mouse) was transplanted into the abdominal cavity of each CDF1 mouse, and each of the platinum complexes was intraperitoneally administered on the day 1, day 5 and day 9 (Q04D×03). Using 5 animals in one group, T/C % (T: treated, C: control) is calculated from survived days. A T/C % value of 125 or more was judged effective. The number of survived (or tumor bearing) animals is shown as n/5. A total of 10 mice were used in the control.
Carcinostatic effect ip--ip, L 1210, three administrations on days 1, 5 and 9
L 1210 (10^5 cells/mouse), one group=5 CDF1 mice, ip administration on the days 1, 5 and 9.

A short description of data set [2]: Stability in an aqueous solution of hydrochloric acid, half life. Type of data set: physicochemical. The note with it: 37° C., 50 μM complex, in the dark. As to the method: Stability of each of the thus obtained complexes in an aqueous solution of hydrochloric acid at 37° C. is shown below in terms of its half life.
The measurement was carried out at a complex concentration of 50 μM at 37° C. in the dark.

A short description of data set [3]: In vitro reduction by an ascorbic acid salt, half life. Type of data set: physicochemical. The note with it: 50 μM complex, pH 7.5 (50 mM HEPES-NaOH), 37° C., dark; for Half life (reduction), 5 mM: 5 mM ascorbic acid salt; for Half life (reduction), 100 mM: 100 mM ascorbic acid salt. As to the method: Test results of the in vitro reduction of the thus obtained complexes by an ascorbic acid salt are shown below in terms of half life.
The measurement was carried out at a complex concentration of 50 μM, pH 7.5 (50 mM HEPES-NaOH buffer), at 37° C. in the dark.

The subject of data set [4] is L 1210. Kind of data set: (Oral) carcinostatic effect L 1210, ip-po. It is filed as in vivo, CDF1 mouse. The settings on record: Q02D×05, suspension in olive oil, 140% or more judged effective. As to the method:
po: On the day 0, L 1210 (10^5 cells/mouse) was transplanted into the abdominal cavity of each CDF1 mouse, and each of the platinum complexes was orally administered on the day 1, day 3, day 5, day 7 and day 9 (Q02D×05), or on the day 1 to day 5 (Q01D×05). The oral administration was carried out with a 10, 7.5 or 5 times higher dose than the optimum amount of each platinum complex by ip (T/C % of ip; 100 mg/kg, 75 mg/kg or 50 mg/kg, respectively). A value of 140% or more was judged effective.
(Oral) carcinostatic effect L 1210, ip-po, every two days Q02D×05
L 1210 (10^5 cells/mouse); one group=5 CDF1 mice; Suspension in olive oil was administered into the stomach through a catheter.

The nature of data set [5]: Behaviour in strongly acidic gastric juice (1 N HCl, pH 0.1). It is filed as physicochemical. The note with it: orally administered.
The conditions of data set [6]: clinical trial; cited from earlier work.

This is an account of results in patent publication US6008395A, “Platinum (IV) complex, production process thereof and carcinostatic agent containing the same” (priority 1995, dated 1999).

Read-outs that look alike come from different tables or passages of the source.

`CCCC(=O)[O-].NC1CCCCC1N.O=C([O-])C(=O)[O-].[Cl-].[Pt+4]` [C4--OHP · Cl, [PtCl(OCOC3 H7) (oxalato) (lR,2R-dach)]]: the T/C % in the data set with L 1210 [1] (12.5 mg/kg ip) amounted to 130%; with L 1210 [1] (25 mg/kg ip), 145%; with L 1210 [1] (50 mg/kg ip), 195%; in the data set on L 1210 [1] (100 mg/kg ip) it was 63%. For the same compound, in data set [2], the “Half life, 0.05 M HCl” value is greater than 50 h. Further, in data set [2], the “Half life, 1 M HCl” value is 6.1 h. Besides, the “Half life (reduction), 5 mM” value in data set [3] was 0.6 h. The “Half life (reduction), 100 mM” value in data set [3] is less than 6 min.

With `CCCCC(=O)[O-].NC1CCCCC1N.O=C([O-])C(=O)[O-].[Br-].[Pt+4]` [C5--OHP · Br, t,t,c,c-[PtBr(OCOC4 H9)(ox)(1R,2R-dach)]], the “number of survived (or tumor bearing) animals (n/5)” value (“number of survived” below) in the data set with L 1210 [1] (25 mg/kg ip) is given as 4/5. The T/C % in the data set on L 1210 [1] (25 mg/kg ip) came to 395%; in the data set with L 1210 [1] (50 mg/kg ip), 107%; in the data set on L 1210 [4] (5 mg/kg po), 160%; in the data set with L 1210 [4] (10 mg/kg po), 163%; in the data set with L 1210 [4] (15 mg/kg po), 73%.

As for `CCCCC(=O)[O-].NC1CCCCC1N.O=C([O-])C(=O)[O-].[Cl-].[Pt+4]` [C5--OHP · Cl, t,t,c,c-[PtCl(OCOC4 H9)(ox)(1R,2R-dach)]], the T/C % in the data set on L 1210 [1] (25 mg/kg ip) is 168%; in the data set with L 1210 [1] (50 mg/kg ip), 283%; in the data set with L 1210 [1] (100 mg/kg ip), 88%; in the data set with L 1210 [4] (2.5 mg/kg po), 140%; with L 1210 [4] (5 mg/kg po), 214%; with L 1210 [4] (10 mg/kg po), 143%. The compound further registered a T/C % in the data set with L 1210 [4] (15 mg/kg po) of 60%. The “number of survived” value in the data set with L 1210 [1] (50 mg/kg ip) was 4/5. For the same compound, the “Half life, 0.05 M HCl” value in data set [2] was greater than 50 h. In addition, the “Half life, 1 M HCl” value in data set [2] was 7.4 h. Besides, the “Half life (reduction), 5 mM” value in data set [3] was 0.8 h. For the same compound, in data set [3], the “Half life (reduction), 100 mM” value was less than 6 min.

As for `CCCCCC(=O)[O-].NC1CCCCC1N.O=C([O-])C(=O)[O-].[Br-].[Pt+4]` [C6--OHP · Br], in the data set with L 1210 [1] (25 mg/kg ip), the “number of survived” value was 4/5. In addition, the T/C % is given as 373% with L 1210 [1] (25 mg/kg ip); 96% with L 1210 [1] (50 mg/kg ip); 69% in the data set on L 1210 [1] (100 mg/kg ip); 173% with L 1210 [4] (5 mg/kg po); 180% in the data set with L 1210 [4] (10 mg/kg po); 88% with L 1210 [4] (15 mg/kg po).

On to `CCCCCC(=O)[O-].NC1CCCCC1N.O=C([O-])C(=O)[O-].[Cl-].[Pt+4]` [C6--OHP · Cl, [PtCl (OCOC5 H11) (oxalato) (1R,2R-dach)]], for which the T/C % is reported as 173% in the data set with L 1210 [1] (25 mg/kg ip); 280% in the data set on L 1210 [1] (50 mg/kg ip); 80% in the data set with L 1210 [1] (100 mg/kg ip); 143% in the data set on L 1210 [4] (2.5 mg/kg po); 191% in the data set on L 1210 [4] (5 mg/kg po); 168% in the data set with L 1210 [4] (10 mg/kg po). In the data set on L 1210 [4] (15 mg/kg po), this compound came in with a T/C % of 98%. Further, the “number of survived” value in the data set on L 1210 [1] (50 mg/kg ip) was 1/5. Moreover, in data set [2], the “Half life, 0.05 M HCl” value is listed as “N.D. (significant decrease in concentration was not observed)”. The “Half life, 1 M HCl” value in data set [2] is 8.9 h. In addition, in data set [3], the “Half life (reduction), 5 mM” value came to 1.2 h. In addition, the “Half life (reduction), 100 mM” value in data set [3] is less than 6 min.

For the compound `CCCCCCC(=O)[O-].NC1CCCCC1N.O=C([O-])C(=O)[O-].[Cl-].[Pt+4]` [C7--OHP · Cl, [PtCl(OCOC6 H13) (oxalato) (1R,2R-dach)]], the T/C % is 122% with L 1210 [1] (12.5 mg/kg ip); 137% in the data set with L 1210 [1] (25 mg/kg ip); 176% in the data set on L 1210 [1] (50 mg/kg ip); 117% in the data set on L 1210 [4] (2.5 mg/kg po); 129% in the data set with L 1210 [4] (5 mg/kg po); 151% in the data set with L 1210 [4] (10 mg/kg po). Moreover, the “Half life, 0.05 M HCl” value in data set [2] is “N.D. (significant decrease in concentration was not observed)”. In data set [2], the “Half life, 1 M HCl” value is 11.3 h. The “Half life (reduction), 5 mM” value in data set [3] came to 1.6 h. In addition, the “Half life (reduction), 100 mM” value in data set [3] was less than 6 min.

Consider `CCCC(=O)[O][Pt]12([O]C(=O)CCC)([NH]C3CCCCC3[NH]1)[O]C(=O)C(=O)[O]2` [Complex C4-OHP, t,c,c-[Pt (OCOC3 H7)2 (ox) (1R,2R-dach)]], for which the “one carboxylic acid substituted by Cl” value in data set [5] was “gradually substituted by Cl”.

Consider `CCCCC(=O)O.CCCCC(=O)O.N[C@@H]1CCCC[C@H]1N.O=C(O)C(=O)O.[Pt]` [Complex C5-OHP, t,c,c-[Pt (OCOC4 H9)2 (ox) (1R,2R-dach)]], for which the “one carboxylic acid substituted by Cl” value in data set [5] is “gradually substituted by Cl”.

On to `CCCCCC(=O)[O-].CCCCCC(=O)[O-].NC1CCCCC1N.O=C([O-])C(=O)[O-].[Pt+4]` [Complex C6-ORP, t,c,c-[Pt (OCOC5 H11)2 (ox) (1R,2R-dach)]], for which the “one carboxylic acid substituted by Cl” value in data set [5] is listed as “gradually substituted by Cl”.

Consider `N[C@@H]1CCCC[C@H]1N.[Cl][Pt+2]([Cl])([Cl])[Cl]` [tetraplatin], for which the “clinical development / side effects” value in data set [6] was “clinical development has been suspended due to the side effects, such as toxicity”.
